Measured values as given in article PMC12892976, “Alkylation-based optimization of antifungal FPPS inhibitors yields a potent, broad-spectrum lipophilic zoledronate derivative” (mBio, 2025).
Read-outs that look alike come from different tables or passages of the source.

How the values were obtained:
Saccharomyces cerevisiae [1] = experiment: checkerboard drug interaction (FICI, MICc); assay type: cell-based; set-up: INH MICc / INH MICc (ITR:INH) / INH MICc (KET:INH) / INH MICc (FLC:INH): unit not given beside the values;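 also: simplified diagonal checkerboard screen pairing antifungals with FPPS inhibitors, FICI calculated under the Loewe additivity model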
Trichophyton rubrum [2] = experiment: MIC/MFC broth microdilution (CLSI); settings: Trichophyton rubrum
Description: (§1) Antifungal susceptibility was determined by broth microdilution according to the CLSI guidelines described in M27-Ed4 ([16]). […] MFC was determined by back-plating drug-treated cultures from MIC broths onto SDA plates. The MFC was defined as the lowest concentration from which no colonies could be cultured.

Saccharomyces cerevisiae [3] = experiment: MIC/MFC broth microdilution (CLSI); assay type: cell-based; settings: Saccharomyces cerevisiae S288c
Description: as §1

Cryptococcus neoformans [4] = experiment: checkerboard drug interaction (FICI, MICc);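 as to all read-outs here: antifungal plus FPPS inhibitor pairs tested against Cryptococcus neoformans by simplified diagonal checkerboard screening, FICI computed under the Loewe additivity model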; assay type: cell-based; settings: C. neoformans; for INH FD (MIC-MICc fold decrease): fold decrease of inhibitor MIC
Description: (§2) Drug interactions between antifungals and FPPS inhibitors were investigated using a simplified checkerboard diagonal screening method ([45]). […] FICIs were determined according to the Loewe additivity model ([17]).

Aspergillus flavus [5] = experiment: MIC/MFC broth microdilution (CLSI); settings: ATCC204304
Description: as §1

Aspergillus fumigatus [6] = experiment: checkerboard drug interaction (FICI, MICc); assay type: cell-based;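 also: simplified diagonal checkerboard screen pairing antifungals with FPPS inhibitors against Aspergillus fumigatus, with FICI calculated under the Loewe additivity model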
Description: as §2

eight fungal species [7] = experiment: MIC/MFC summary across the eight fungal species of Table 1; assay type: cell-based
Description: The antifungal activity of these compounds was evaluated according to CLSI guidelines ([16]).

Aspergillus flavus [8] = experiment: checkerboard drug interaction (FICI, MICc);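 also: simplified diagonal checkerboard screen pairing azole antifungals with FPPS inhibitors, FICI calculated under the Loewe additivity model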; assay type: cell-based; set-up: INH MICc (KET:INH) / INH MICc (FLC:INH): unit not given beside the values; settings: A. flavus
eight fungal species [9] = experiment: checkerboard interaction with azoles, summary across the eight species; assay type: cell-based; settings: geometric mean MIC in combination with azoles
Source text: Synergy between lipophilic FPPS inhibitors and azole antifungals was investigated by determining the fractional inhibitory concentration index (FICI) (Fig. 2; Table S1 Fig. S1) ([17]). […]. Derivatives PLA9 and 11, and PDA9, 11, and 12 antagonized azoles in C. albicans, C. neoformans, and C. deuterogattii, yet were largely synergistic in C. glabrata and S. cerevisiae. […].

Trichophyton rubrum [10] = experiment: checkerboard drug interaction (FICI, MICc);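 also: simplified diagonal checkerboard screen pairing azole antifungals with FPPS inhibitors, FICI calculated under the Loewe additivity model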; assay type: cell-based; settings: T. rubrum
Description: as §2

Aspergillus fumigatus [11] = experiment: MIC/MFC broth microdilution (CLSI); settings: ATCC204305
Description: as §1

Candida glabrata [12] = experiment: checkerboard drug interaction (FICI, MICc);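 as to all read-outs here: simplified diagonal checkerboard screen pairing antifungals with FPPS inhibitors, FICI calculated under the Loewe additivity model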; assay type: cell-based; settings: C. glabrata; for INH FD (MIC-MICc fold decrease): fold decrease of inhibitor MIC
Description: as §2

[13] = tested on: Cryptococcus deuterogattii; experiment: checkerboard drug interaction (FICI, MICc);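 as to all read-outs here: simplified diagonal checkerboard screen pairing antifungal drugs with FPPS inhibitors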; assay type: cell-based; settings: C. deuterogattii; for INH FD (MIC-MICc fold decrease): fold decrease of inhibitor MIC
Description: as §2

HEK-293T cells = experiment: MTT reduction cytotoxicity assay; assay type: cell-based; settings: Homo sapiens, HEK-293T, 72 h, MTT, 72 h
Cryptococcus neoformans [14] = experiment: MIC/MFC broth microdilution (CLSI); settings: Cryptococcus neoformans;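 also: susceptibility testing followed the CLSI M27-Ed4 broth microdilution document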
Description: as §1

[15] = tested on: Cryptococcus deuterogattii; experiment: MIC/MFC broth microdilution (CLSI); settings: Cryptococcus deuterogattii;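 also: broth microdilution per CLSI M27-Ed4. MFC is the lowest concentration yielding no colonies when MIC broths are subcultured onto SDA plates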
Description: as §1

Candida albicans [16] = experiment: checkerboard drug interaction (FICI, MICc);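 as to all read-outs here: antifungal plus FPPS inhibitor combinations on Candida albicans tested by a simplified diagonal checkerboard screen, with FICI calculated under the Loewe additivity model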; assay type: cell-based; settings: C. albicans; for INH FD (MIC-MICc fold decrease): fold decrease of inhibitor MIC
Description: as §2

Candida glabrata [17] = experiment: MIC/MFC broth microdilution (CLSI); settings: Nakaseomyces glabratus, CBS138;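 also: broth microdilution following CLSI M27-Ed4, MFC taken as the lowest drug level yielding no growth once MIC wells were subcultured on SDA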
Description: as §1

Candida albicans [18] = experiment: MIC/MFC broth microdilution (CLSI); assay type: cell-based; settings: Candida albicans SC5314
Description: as §1

[19] = Fractional Inhibitory Concentration Index, fluconazole + inhibitor
[20] = Fractional Inhibitory Concentration Index, itraconazole + inhibitor
[21] = Fractional Inhibitory Concentration Index, ketoconazole + inhibitor
[22] = MIC of the inhibitor in combination with fluconazole
[23] = MIC of the inhibitor in combination with itraconazole
[24] = MIC of the inhibitor in combination with ketoconazole
[25] = MIC-MICc fold decrease of fluconazole, negative = increase
[26] = MIC-MICc fold decrease of itraconazole, negative = increase
[27] = MIC-MICc fold decrease of ketoconazole, negative = increase
[28] = MIC-MICc fold decrease of the inhibitor, with fluconazole
[29] = MIC-MICc fold decrease of the inhibitor, with itraconazole
[30] = MIC-MICc fold decrease of the inhibitor, with ketoconazole
[31] = FLC:INH combination, MIC of the inhibitor in combination with FLC
[32] = FLC:INH combination, fold decrease of FLC MIC
[33] = ITR:INH combination, MIC of the inhibitor in combination with ITR
[34] = ITR:INH combination, fold decrease of ITR MIC
[35] = KET:INH combination, MIC of the inhibitor in combination with KET
[36] = KET:INH combination, fold decrease of KET MIC

CCCCCCCCCCCCN1CCC[C@H]1C(=O)N[C@H](CC(=O)O)C(=O)O [PDA12]
0.31: FICI (KET:INH) (Saccharomyces cerevisiae [1]; [21]) | FICI (Candida glabrata [12]; ITR:INH combination) | FICI (Candida glabrata [12]; KET:INH combination)
< -4: ITR FD (MIC-MICc fold decrease) (Candida albicans [16]; [34])
2.25: FICI (Cryptococcus neoformans [4]; ITR:INH combination)
52.3: GM fungal MICc (eight fungal species [9])
≥4: FICI (Cryptococcus neoformans [4]; FLC:INH combination) | FICI (Cryptococcus neoformans [4]; KET:INH combination) | FICI (FLC:INH) (Trichophyton rubrum [10]; [19]) | FICI (KET:INH) (Trichophyton rubrum [10]; [21]) | FICI ([13]; ITR:INH combination) | FICI (Candida albicans [16]; ITR:INH combination) | FICI (Candida albicans [16]; KET:INH combination)
1: FLC FD (FLC:INH) (Aspergillus fumigatus [6]; [25]) | KET FD (KET:INH) (Aspergillus fumigatus [6]; [27]) | INH FD (FLC:INH) (Aspergillus fumigatus [6]; [28]) | FICI (ITR:INH) (Aspergillus flavus [8]; [20]) | FICI (KET:INH) (Aspergillus flavus [8]; [21]) | FLC FD (FLC:INH) (Aspergillus flavus [8]; [25]) | INH FD (FLC:INH) (Aspergillus flavus [8]; [28]) | ITR FD (ITR:INH) (Trichophyton rubrum [10]; [26])
168 µg/mL: IC50 (HEK-293T cells; HEK-293T cells, read-out: IC50) | IC50 (HEK-293T cells; read-out: HEK IC50)
0.75: FICI (Candida glabrata [12]; FLC:INH combination)
256: INH MICc (FLC:INH) (Aspergillus fumigatus [6]; [22]) | INH MICc (FLC:INH) (Aspergillus flavus [8]; [22]) | INH MICc (FLC:INH) (Trichophyton rubrum [10]; [22]) | INH MICc (ITR:INH) (Trichophyton rubrum [10]; [23]) | INH MICc (KET:INH) (Trichophyton rubrum [10]; [24])
3: FICI (ITR:INH) (Trichophyton rubrum [10]; [20])
-4: FLC FD (MIC-MICc fold decrease) (Cryptococcus neoformans [4]; [32]) | KET FD (MIC-MICc fold decrease) (Cryptococcus neoformans [4]; [36]) | ITR FD (MIC-MICc fold decrease) [13, 34] | KET FD (MIC-MICc fold decrease) (Candida albicans [16]; [36])
64: INH MICc (FLC:INH) (Saccharomyces cerevisiae [1]; [22]) | INH MICc (Cryptococcus neoformans [4]; [33]) | INH MICc [13, 35] | INH MICc (Candida albicans [16]; [33])
0.5: FICI ([13]; KET:INH combination)
235 µg/mL: MIC (eight fungal species [7]; geometric mean across eight species, read-out: GM fungal MIC) | MIC (eight fungal species [7]; read-out: Geometric mean MIC)
2.06: FICI (Candida albicans [16]; FLC:INH combination)
2: ITR FD (ITR:INH) (Saccharomyces cerevisiae [1]; [26]) | INH FD (MIC-MICc fold decrease) (Cryptococcus neoformans [4]; FLC:INH combination) | INH FD (MIC-MICc fold decrease) (Cryptococcus neoformans [4]; KET:INH combination) | FICI (FLC:INH) (Aspergillus fumigatus [6]; [19]) | INH MICc (ITR:INH) (Aspergillus fumigatus [6]; [23]) | ITR FD (ITR:INH) (Aspergillus fumigatus [6]; [26]) | INH FD (KET:INH) (Aspergillus fumigatus [6]; [30]) | FICI (FLC:INH) (Aspergillus flavus [8]; [19]) | ITR FD (ITR:INH) (Aspergillus flavus [8]; [26]) | KET FD (KET:INH) (Aspergillus flavus [8]; [27]) | INH FD (ITR:INH) (Aspergillus flavus [8]; [29]) | INH FD (KET:INH) (Aspergillus flavus [8]; [30]) | FLC FD (MIC-MICc fold decrease) (Candida glabrata [12]; [32]) | INH MICc (Candida glabrata [12]; [33]) | INH MICc (Candida glabrata [12]; [35]) | INH FD (MIC-MICc fold decrease) ([13]; FLC:INH combination) | INH FD (MIC-MICc fold decrease) ([13]; ITR:INH combination)
0.38: FICI (FLC:INH) (Saccharomyces cerevisiae [1]; [19])
128: INH MICc (Cryptococcus neoformans [4]; [31]) | INH MICc (Cryptococcus neoformans [4]; [35]) | INH MICc (KET:INH) (Aspergillus fumigatus [6]; [24]) | INH FD (ITR:INH) (Aspergillus fumigatus [6]; [29]) | INH MICc (ITR:INH) (Aspergillus flavus [8]; [23]) | INH MICc (KET:INH) (Aspergillus flavus [8]; [24]) | INH FD (MIC-MICc fold decrease) (Candida glabrata [12]; ITR:INH combination) | INH FD (MIC-MICc fold decrease) (Candida glabrata [12]; KET:INH combination) | INH MICc [13, 31] | INH MICc [13, 33]
-2: ITR FD (MIC-MICc fold decrease) (Cryptococcus neoformans [4]; [34]) | FLC FD (FLC:INH) (Trichophyton rubrum [10]; [25]) | KET FD (KET:INH) (Trichophyton rubrum [10]; [27]) | INH FD (FLC:INH) (Trichophyton rubrum [10]; [28]) | INH FD (ITR:INH) (Trichophyton rubrum [10]; [29]) | INH FD (KET:INH) (Trichophyton rubrum [10]; [30]) | FLC FD (MIC-MICc fold decrease) [13, 32] | FLC FD (MIC-MICc fold decrease) (Candida albicans [16]; [32])
16: INH MICc (KET:INH) (Saccharomyces cerevisiae [1]; [24]) | INH FD (KET:INH) (Saccharomyces cerevisiae [1]; [30]) | INH MICc (Candida albicans [16]; [31]) | INH FD (MIC-MICc fold decrease) (Candida albicans [16]; FLC:INH combination)
> 128 µg/mL: MFC (Trichophyton rubrum [2]) | MFC (Saccharomyces cerevisiae [3]) | MIC (Saccharomyces cerevisiae [3]) | MFC (Aspergillus flavus [5]) | MIC (Aspergillus flavus [5]) | MFC (eight fungal species [7]; across eight species, read-out: Geometric mean MFC) | MFC (Aspergillus fumigatus [11]) | MIC (Aspergillus fumigatus [11]) | MFC (Cryptococcus neoformans [14]) | MIC (Cryptococcus neoformans [14]) | MFC [15] | MIC [15] | MFC (Candida glabrata [17]) | MIC (Candida glabrata [17]) | MFC (Candida albicans [18]) | MIC (Candida albicans [18])
1.5: FICI (KET:INH) (Aspergillus fumigatus [6]; [21])
0.63: FICI (ITR:INH) (Saccharomyces cerevisiae [1]; [20])
4: KET FD (KET:INH) (Saccharomyces cerevisiae [1]; [27]) | INH FD (FLC:INH) (Saccharomyces cerevisiae [1]; [28]) | INH FD (MIC-MICc fold decrease) (Cryptococcus neoformans [4]; ITR:INH combination) | ITR FD (MIC-MICc fold decrease) (Candida glabrata [12]; [34]) | KET FD (MIC-MICc fold decrease) (Candida glabrata [12]; [36]) | KET FD (MIC-MICc fold decrease) [13, 36] | INH FD (MIC-MICc fold decrease) ([13]; KET:INH combination) | INH FD (MIC-MICc fold decrease) (Candida albicans [16]; ITR:INH combination)
0.51: FICI (ITR:INH) (Aspergillus fumigatus [6]; [20])
8: FLC FD (FLC:INH) (Saccharomyces cerevisiae [1]; [25]) | INH FD (ITR:INH) (Saccharomyces cerevisiae [1]; [29]) | INH MICc (Candida glabrata [12]; [31]) | INH FD (MIC-MICc fold decrease) (Candida albicans [16]; KET:INH combination)
128 µg/mL: MIC (Trichophyton rubrum [2])
2.5: FICI ([13]; FLC:INH combination)
32: INH MICc (ITR:INH) (Saccharomyces cerevisiae [1]; [23]) | INH FD (MIC-MICc fold decrease) (Candida glabrata [12]; FLC:INH combination) | INH MICc (Candida albicans [16]; [35])
